{"source": "patent US11673916B2", "about": "“Neuroprotective peptides and methods of their use” (University of Pittsburgh—Of the Commonwealth System of …, priority 2020, dated 2023)", "tested_on": "MCAo mouse model of ischemic stroke", "assay": "Murine neurological score (MNS) after MCAo", "assay_type": "in vivo", "details": "50 minutes left MCAo, IP injection at one and six hours post-reperfusion, versus scrambled control (FIG. 6E)", "experimental": "To analyze neurological deficits following MCA stroke, testing was performed by a blinded experimenter on additional cohorts, both at baseline (all initial scores were 0) and on post-stroke days 1, 2, 3, 5, 7, 10, 14, 21, 28, 35, and 42. An objective murine neurological score (Table 3) was assigned on each date, ranging from 0 (no neurological deficit) to 8 (stroke-related death) (Yeh et al., J Neurosci. 37: 5648-5658, 2017).\nTwenty-four hours following cerebral reperfusion after MCAo, total infarct ratios were analyzed (FIG. 6B) in tetrazolium chloride-stained brain sections (FIGS. 6B and 6C). […] Preparation of peptides, MCAo surgery and injection, as well as infarct analysis were all randomized and performed blindly. A second cohort of mice was subjected to 50-minute MCAo, followed by TAT-DP-2 or TAT-Sc-2 injection at one and six-hours post-reperfusion (FIG. 6A). A different, blinded observer then analyzed each animal and assigned an objective murine neurological score (MNS; Table 3) to each mouse over a 42-day period. As the MNS is based solely on characteristic motor deficits developed following left MCAo, all animals initially scored zero on the scale."}
{"sequence": "YGRKKRRQRRRSIDSFTS [TAT-DP-2, TAT-linked declustering peptide 2]", "values": [{"measurement": "murine neurological score (MNS) over 42 days post-MCAo", "value": "significant preservation of favorable neurological score"}]}
